One test concerns MCT-induced PH in rats. Kind of test: MCT-PH model, FK-866 analogs as preventive therapy. To be noted: for hypertrophy-ratio of RV and LV plus septal-S weight (RVH-RV) / right ventricular systolic pressure (RVSP): preliminary studies in MCT-PH. The format is in vivo. On the procedure:
FIG. 10A is a bar graph showing normalized NAMPT activity in the present of FK866 and FK analogues MS-1-82, Rari049, Alp-135 at 0.1, 1, and 10 μM concentrations. FIG. 10B is a bar graph showing RVSP in MCT-induced PH in rats and in MCT-induced PH in rats with Rari049 (2.5 mg/kg, i.p. BID, ×2 wks) (RVSP-right ventricular systolic pressure, RVH-RV hypertrophy-ratio of RV and LV plus septal-S weight).

The target in another test is T1, NAMPT (Homo sapiens, UniProt P43490).
T1 construct: purchased MBL International (Woburn, Mass.)
Briefly: CycLex NAMPT Colorimetric Assay, NAMPT enzymatic activity. In kind it is biochemical. To be noted: three doses 0.1, 1, 10 uM. As for the experimental part: CycLex NAMPT Colorimetric Assay Kit was purchased from MBL International (Woburn, Mass.) and utilized to screen the effect of putative NAMPT inhibitors on NAMPT enzymatic activity. Three doses (0.1, 1, 10 uM) of each NAMPT inhibitors was used following the manufacturer's instruction.

Test [1] has as its system Human pulmonary artery endothelial cells (EC). Briefly: TNF-α-induced apoptosis / PARP-1 cleavage in human lung endothelial cells. The format is cell-based. As for the experimental part: Human pulmonary artery endothelial cells (EC) were obtained from Lonza (Walkersville Md.) and were cultured in the manufacturer's recommended endothelial growth medium-2 (EGM-2). Cells were grown at 37° C. in a 5% CO2 incubator, and passages 6 to 9 were used for experiments. Media was changed one day before experimentation. For RNA interference, siRNAs were transfected into EC at a final concentration of 100 nM for 72 hrs. Protein quantification and Western blot analysis were performed according to standard procedures.
(B) ECs were pre-treated (6 hrs) with either vehicle (DMSO) or with a caspase-3 inhibitor (z-DEVD-fmk, 20 μM) prior to 24 hr challenge with TNF-α (30 ng/ml), FasL (100 ng/ml) or tBHP (5 mM). […] (C) ECs were transfected with myc-tagged NAMPT plasmid resulting in marked NAMPT overexpression. […] Error bars indicate SEM of three independent experiments.

In another test the test system is hPASMCs. Briefly: TUNEL apoptosis assay in hPASMCs. To be noted: FK866 10 μM, 24 hrs. In kind it is cell-based, human. On the procedure:
hPASMCs were cultured on a coverslip in a 6-well cell culture plate. H2O2 (100 μM, Sigma, Cat. #ab66110) was used as an apoptosis stimulus for hPASMCs.
When cell confluence reached 95%, cells were starved for 3 hrs and stimulated by H2O2, FK866 (10 μM), H2O2+rhNAMPT (20 μg/ml) or H2O2+rhNAMPT (20 μg/ml) with FK866 (10 μM) for 24 hrs. Cell apoptosis was examined using an in situ BrdU-Red DNA fragmentation (TUNEL) kit. The cells on the coverslips were examined using a Nikon Eclipse E800 fluorescence microscope, and the images were processed by MetaMorph software (Molecular Devices, Inc.). Approximately ten images were taken from each condition, and over 500 cells were counted according to DAPI staining.

[2] abbreviates: MCT-PH, 2.5 mg/kg, i.p. BID, ×2 wks.

This is an account of results in patent US10975167B2, “Method to reduce pulmonary arterial hypertension by administering inhibitors of nicotinamide phosphoribotransferase” (Arizona Board of Regents on Behalf of the University of …, priority 2017, dated 2021).

T1 sequence (P43490 whole entry): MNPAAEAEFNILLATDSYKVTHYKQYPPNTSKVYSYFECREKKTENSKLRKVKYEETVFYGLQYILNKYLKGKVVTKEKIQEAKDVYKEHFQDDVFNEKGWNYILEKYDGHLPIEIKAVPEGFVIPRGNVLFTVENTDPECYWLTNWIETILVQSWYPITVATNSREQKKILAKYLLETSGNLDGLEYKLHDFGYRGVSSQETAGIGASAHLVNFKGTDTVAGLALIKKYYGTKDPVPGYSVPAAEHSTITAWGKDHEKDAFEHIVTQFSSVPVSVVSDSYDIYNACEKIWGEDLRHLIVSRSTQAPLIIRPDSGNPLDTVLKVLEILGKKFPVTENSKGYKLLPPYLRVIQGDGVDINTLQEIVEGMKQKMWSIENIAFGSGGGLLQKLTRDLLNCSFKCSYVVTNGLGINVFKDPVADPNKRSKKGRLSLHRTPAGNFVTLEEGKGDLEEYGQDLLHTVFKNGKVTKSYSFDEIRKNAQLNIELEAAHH

Consider `O=C(/C=C/c1cccnc1)NCCCCCCn1c2ccccc2c2ccccc21` [Alp135], for which, in the test with MCT-induced PH in rats, the “hypertrophy-ratio of RV and LV plus septal-S weight (RVH-RV)” value is listed as “reducing”; the “right ventricular systolic pressure (RVSP)” value is reported as “reducing”. Besides, at NAMPT, the “NAMPT enzyme inhibitory properties” value is given as “excellent dose-dependent enzyme inhibitory properties”.

Turning to `O=C(/C=C/c1cccnc1)NCCCCC1CCN(C(=O)c2ccccc2)CC1` [FK866, (E)-N-[4-(1-Benzoylpiperidin-4-yl)butyl]-3-pyridin-3-ylprop-2-enamide, reference compound], the “TNFα-induced EC apoptosis” value in test [1] (human lung EC) is on record as “failed to alter”. Also, in the test on hPASMCs, the “hPASMC apoptosis (TUNEL positive cells)” value was “promotes”.

For `O=C(/C=C/c1cccnc1)NCCCCCCNC(=O)c1cccnc1` [MS-1-82], the “NAMPT enzyme inhibitory properties” value at NAMPT was “excellent dose-dependent enzyme inhibitory properties”.

Consider `O=C(/C=C/c1cccnc1)NCCCCCCn1c(-c2ccccc2)cc2ccccc21` [Rari049], for which, in the test with MCT-induced PH in rats (setting [2]), the RVH entry is on record as “reducing” and the RVSP entry is “reducing”. In the test with MCT-induced PH in rats, the “hypertrophy-ratio of RV and LV plus septal-S weight (RVH-RV)” value is reported as “reducing”; the “right ventricular systolic pressure (RVSP)” value is recorded as “reducing”. Also, the “NAMPT enzyme inhibitory properties” value on NAMPT was “excellent dose-dependent enzyme inhibitory properties”.

For the compound z-DEVD-fmk, in test [1] (pre-incubated 6 hrs, 20 μM, TNF-α 30 ng/ml 24 hrs, vs vehicle (DMSO)), the “PARP-1 cleavage induced by TNF-α” value is on record as “significantly reduced”.
